Results published in PubChem BioAssay AID258 (DTP/NCI, 2004).
“And” between values parts separate entries of the source, which are not always exact repeats. Equal values may be shown once. Toxic doses and inconclusive results are not listed.

Test system: CD2F1 mice, L1210 leukemia sc, survival T/C
Experiment: NCI In Vivo Anticancer Drug Screen. Data for tumor model L1210 Leukemia (subcutaneous) in CD2F1 (CDF1) mice
Conditions: endpoint: median survival time, higher = longer survival
In short: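 T/C ratio: treated-group survival or tumor size over vehicle-control group measurement, in mice carrying transplanted tumors.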

O=NN(CCCl)C(=O)NCCCl
T/C (dose: 0.25 mg/kg/injection, schedule: Q01DX009 (ip), vehicle: saline + alcohol): 108 % of control
T/C (dose: 0.25 mg/kg/injection, schedule: Q01DX009 (sc), vehicle: saline + alcohol): 100 % of control and 107 % of control
T/C (dose: 0.5 mg/kg/injection, schedule: Q01DX009 (ip), vehicle: saline + alcohol): 121 % of control
T/C (dose: 0.5 mg/kg/injection, schedule: Q01DX009 (sc), vehicle: saline + alcohol): 112 % of control and 98 % of control
T/C (dose: 0.88 mg/kg/injection, schedule: Q01DX009 (ip), vehicle: saline + alcohol): 121 % of control
T/C (dose: 0.9 mg/kg/injection, schedule: Q01DX009 (ip), vehicle: saline + alcohol): 112 % of control
T/C (dose: 1.0 mg/kg/injection, schedule: Q01DX009 (sc), vehicle: saline + alcohol): 108 % of control and 124 % of control
T/C (dose: 1.8 mg/kg/injection, schedule: Q01DX009 (ip), vehicle: saline + alcohol): 120 % of control
T/C (dose: 1.8 mg/kg/injection, schedule: Q01DX Z (sc), vehicle: saline): 243 % of control
T/C (dose: 2.0 mg/kg/injection, schedule: Q01DX009 (ip), vehicle: saline + alcohol): 159 % of control and 192 % of control
T/C (dose: 3.0 mg/kg/injection, schedule: Q01DX Z (sc), vehicle: saline): 512 % of control
T/C (dose: 4.0 mg/kg/injection, schedule: Q01DX009 (ip), vehicle: saline + alcohol): 187 % of control and 219 % of control
T/C (dose: 5.0 mg/kg/injection, schedule: Q01DX Z (sc), vehicle: saline): 300 % of control
T/C (dose: 5.0 mg/kg/injection, schedule: Q07DX Z (sc), vehicle: saline): 150 % of control
T/C (dose: 5.3 mg/kg/injection, schedule: Q01DX009 (sc), vehicle: saline + alcohol): 314 % of control
T/C (dose: 5.33 mg/kg/injection, schedule: Q01DX009 (ip), vehicle: saline + alcohol): 222 % of control
T/C (dose: 5.33 mg/kg/injection, schedule: Q01DX009 (sc), vehicle: saline + alcohol): 203 % of control
T/C (dose: 7.0 mg/kg/injection, schedule: Q01DX009 (ip), vehicle: saline + alcohol): 167 % of control and 184 % of control
T/C (dose: 8.0 mg/kg/injection, schedule: Q01DX009 (ip), vehicle: saline + alcohol): 179 % of control and 243 % of control
T/C (dose: 8.4 mg/kg/injection, schedule: Q01DX001 (sc), vehicle: saline): 212 % of control
T/C (dose: 8.4 mg/kg/injection, schedule: Q01DX017 (ip), vehicle: none): 333 % of control
T/C (dose: 8.4 mg/kg/injection, schedule: Q01DX017 (sc), vehicle: saline): 316 % of control
T/C (dose: 8.4 mg/kg/injection, schedule: Q01DX Z (sc), vehicle: saline): 256 % of control
T/C (dose: 8.4 mg/kg/injection, schedule: Q07DX Z (sc), vehicle: saline): 293 % of control
T/C (dose: 12.0 mg/kg/injection, schedule: Q01DX009 (sc), vehicle: saline + alcohol): 151 % of control and 205 % of control
T/C (dose: 14.0 mg/kg/injection, schedule: Q01DX001 (sc), vehicle: saline): 300 % of control
T/C (dose: 14.0 mg/kg/injection, schedule: Q01DX009 (ip), vehicle: saline + alcohol): 116 % of control
T/C (dose: 14.0 mg/kg/injection, schedule: Q01DX017 (ip), vehicle: none): 588 % of control
T/C (dose: 14.0 mg/kg/injection, schedule: Q01DX017 (sc), vehicle: saline): 388 % of control
T/C (dose: 14.0 mg/kg/injection, schedule: Q01DX Z (sc), vehicle: saline): 212 % of control
T/C (dose: 14.0 mg/kg/injection, schedule: Q07DX Z (sc), vehicle: saline): 600 % of control
T/C (dose: 16.0 mg/kg/injection, schedule: Q01DX009 (sc), vehicle: saline + alcohol): 160 % of control
T/C (dose: 23.0 mg/kg/injection, schedule: Q01DX001 (sc), vehicle: saline): 343 % of control
T/C (dose: 23.0 mg/kg/injection, schedule: Q01DX017 (ip), vehicle: none): 731 % of control
T/C (dose: 23.0 mg/kg/injection, schedule: Q01DX017 (sc), vehicle: saline): 733 % of control
T/C (dose: 23.0 mg/kg/injection, schedule: Q07DX Z (sc), vehicle: saline): 331 % of control
T/C (dose: 32.0 mg/kg/injection, schedule: Q01DX009 (ip), vehicle: saline + alcohol): 98 % of control
T/C (dose: 32.0 mg/kg/injection, schedule: Q01DX009 (sc), vehicle: saline + alcohol): 102 % of control and 124 % of control
T/C (dose: 39.0 mg/kg/injection, schedule: Q01DX001 (sc), vehicle: saline): 243 % of control
T/C (dose: 39.0 mg/kg/injection, schedule: Q01DX017 (ip), vehicle: none): 511 % of control
T/C (dose: 39.0 mg/kg/injection, schedule: Q01DX017 (sc), vehicle: saline): 500 % of control
T/C (dose: 39.0 mg/kg/injection, schedule: Q07DX Z (sc), vehicle: saline): 200 % of control
T/C (dose: 65.0 mg/kg/injection, schedule: Q01DX001 (sc), vehicle: saline): 162 % of control

COc1cccc2c1C(=O)c1c(O)c3c(c(O)c1C2=O)C[C@@](O)(C(=O)CO)C[C@@H]3OC1CC(N)C(O)C(C)O1 (some centres not stated)
T/C (dose: 0.25 mg/kg/injection, schedule: Q01DX009 (ip), vehicle: saline): 101 % of control and 98 % of control
T/C (dose: 0.25 mg/kg/injection, schedule: Q01DX009 (sc), vehicle: saline): 98 % of control
T/C (dose: 0.5 mg/kg/injection, schedule: Q01DX009 (ip), vehicle: saline): 103 % of control and 107 % of control and 98 % of control
T/C (dose: 0.5 mg/kg/injection, schedule: Q01DX009 (sc), vehicle: saline): 101 % of control
T/C (dose: 1.0 mg/kg/injection, schedule: Q01DX009 (ip), vehicle: saline): 100 % of control and 106 % of control and 123 % of control
T/C (dose: 1.0 mg/kg/injection, schedule: Q01DX009 (sc), vehicle: saline): 110 % of control
T/C (dose: 2.0 mg/kg/injection, schedule: Q01DX009 (ip), vehicle: saline): 111 % of control and 115 % of control and 123 % of control
T/C (dose: 2.0 mg/kg/injection, schedule: Q01DX009 (sc), vehicle: saline): 117 % of control and 120 % of control
T/C (dose: 2.5 mg/kg/injection, schedule: Q01DX009 (sc), vehicle: saline): 114 % of control
T/C (dose: 3.0 mg/kg/injection, schedule: Q01DX009 (sc), vehicle: saline): 116 % of control
T/C (dose: 3.5 mg/kg/injection, schedule: Q01DX009 (sc), vehicle: saline): 120 % of control
T/C (dose: 4.0 mg/kg/injection, schedule: Q01DX009 (ip), vehicle: saline): 110 % of control and 92 % of control and 97 % of control
T/C (dose: 5.0 mg/kg/injection, schedule: Q01DX009 (sc), vehicle: saline): 116 % of control
T/C (dose: 6.0 mg/kg/injection, schedule: Q01DX009 (sc), vehicle: saline): 102 % of control
T/C (dose: 8.0 mg/kg/injection, schedule: Q01DX009 (sc), vehicle: saline): 113 % of control and 89 % of control

Cc1cccnc1
T/C (dose: 108.0 mg/kg/injection, schedule: Q01DX Z (sc), vehicle: water): 100 % of control
T/C (dose: 180.0 mg/kg/injection, schedule: Q01DX Z (sc), vehicle: water): 100 % of control

Nc1ccc(C(=O)O)cn1
T/C (dose: 14.0 mg/kg/injection, schedule: Q01DX Z (sc), vehicle: other): 100 % of control
T/C (dose: 23.0 mg/kg/injection, schedule: Q01DX Z (sc), vehicle: other): 100 % of control
T/C (dose: 37.0 mg/kg/injection, schedule: Q01DX Z (sc), vehicle: other): 100 % of control
T/C (dose: 65.0 mg/kg/injection, schedule: Q01DX Z (sc), vehicle: other): 111 % of control
T/C (dose: 108.0 mg/kg/injection, schedule: Q01DX Z (sc), vehicle: other): 100 % of control
T/C (dose: 180.0 mg/kg/injection, schedule: Q01DX Z (sc), vehicle: other): 111 % of control

Nc1nc2c(ncn2C2CC(O)C(CO)O2)c(=O)[nH]1 (configuration not stated)
T/C (dose: 31.0 mg/kg/injection, schedule: Q01DX Z (sc), vehicle: water): 100 % of control
